{
  "source": "ChEMBL document CHEMBL4387741",
  "about": "“Optimization of novel reversible Bruton's tyrosine kinase inhibitors identified using Tethering-fragment-based screens” (Bioorg Med Chem, 2019)",
  "key": {"[1]": {"test_system": "Epidermal growth factor receptor (Homo sapiens), P00533 [L861Q]", "experiment": "Inhibition of human partial length EGFR L861Q mutant (R669 to V1011 residues) expressed in bacterial expression system at 1 uM by Kinomescan method relative to control"}, "[2]": {"target": "Mitogen-activated protein kinase 14 (Homo sapiens) (UniProt Q16539)", "experiment": "Inhibition of wild-type human full length p38-alpha (M1 to S360 residues) expressed in bacterial expression system at 1 uM by Kinomescan method relative to control"}, "[3]": {"target": "Fibroblast growth factor receptor 1 (Homo sapiens) (UniProt P11362)", "experiment": "Inhibition of wild-type human partial length FGFR1 (P357 to V669 residues) expressed in bacterial expression system at 1 uM by Kinomescan method relative to control"}, "[4]": {"test_system": "Mast/stem cell growth factor receptor Kit (Homo sapiens), P10721 [UNDEFINED MUTATION]", "experiment": "Inhibition of human partial length KIT V559D/V654 double mutant (Y545 to D952 residues) expressed in bacterial expression system at 1 uM by Kinomescan method relative to control"}, "[5]": {"target": "Hormonally up-regulated neu tumor-associated kinase (Homo sapiens) (UniProt P57058)", "experiment": "Inhibition of wild-type human partial length HUNK (A31 to K354 residues) expressed in bacterial expression system at 1 uM by Kinomescan method relative to control"}, "[6]": {"target": "Serine/threonine-protein kinase tousled-like 2 (Homo sapiens) (UniProt Q86UE8)", "experiment": "Inhibition of wild-type human partial length TLK2 (E424 to N749 residues) expressed in bacterial expression system at 1 uM by Kinomescan method relative to control"}, "[7]": {"target": "Protein kinase C theta type (Homo sapiens) (UniProt Q04759)", "experiment": "Inhibition of wild-type human partial length PRKCQ (L350 to S706 residues) expressed in bacterial expression system at 1 uM by Kinomescan method relative to control"}, "[8]": {"target": "Ephrin type-A receptor 3 (Homo sapiens) (UniProt P29320)", "experiment": "Inhibition of wild-type human partial length EPHA3 (D604 to K889 residues) expressed in bacterial expression system at 1 uM by Kinomescan method relative to control"}, "[9]": {"target": "Receptor-interacting serine/threonine-protein kinase 4 (Homo sapiens) (UniProt P57078)", "experiment": "Inhibition of wild-type human partial length RIPK4 (M1 to V303 residues) expressed in mammalian expression system at 1 uM by Kinomescan method relative to control"}, "[10]": {"target": "Myosin light chain kinase 2, skeletal/cardiac muscle (Homo sapiens) (UniProt Q9H1R3)", "experiment": "Inhibition of wild-type human partial length MYLK2 (D258 to K570 residues) expressed in bacterial expression system at 1 uM by Kinomescan method relative to control"}, "[11]": {"test_system": "Mast/stem cell growth factor receptor Kit (Homo sapiens), P10721 [A829P]", "experiment": "Inhibition of human partial length KIT A829P mutant (I571 to D952 residues) expressed in mammalian expression system at 1 uM by Kinomescan method relative to control"}, "[12]": {"target": "Cyclin-dependent kinase-like 2 (Homo sapiens) (UniProt Q92772)", "experiment": "Inhibition of wild-type human partial length CDKL2 (M1 to D327 residues) expressed in bacterial expression system at 1 uM by Kinomescan method relative to control"}, "[13]": {"target": "Calcium/calmodulin-dependent protein kinase type II subunit alpha (Homo sapiens) (UniProt Q9UQM7)", "experiment": "Inhibition of wild-type human partial length CAMK2A (M1 to K328 residues) expressed in bacterial expression system at 1 uM by Kinomescan method relative to control"}, "[14]": {"target": "Focal adhesion kinase 1 (Homo sapiens) (UniProt Q05397)", "experiment": "Inhibition of wild-type human partial length FAK (D402 to R696 residues) expressed in bacterial expression system at 1 uM by Kinomescan method relative to control"}, "[15]": {"target": "Calcium/calmodulin-dependent protein kinase type 1 (Homo sapiens) (UniProt Q14012)", "experiment": "Inhibition of wild-type human full length CAMK1 (M1 to L370 residues) expressed in bacterial expression system at 1 uM by Kinomescan method relative to control"}, "[16]": {"test_system": "Receptor-type tyrosine-protein kinase FLT3 (Homo sapiens), P36888 [UNDEFINED MUTATION]", "sequence (P36888 whole entry, looked up, stated change not applied)": "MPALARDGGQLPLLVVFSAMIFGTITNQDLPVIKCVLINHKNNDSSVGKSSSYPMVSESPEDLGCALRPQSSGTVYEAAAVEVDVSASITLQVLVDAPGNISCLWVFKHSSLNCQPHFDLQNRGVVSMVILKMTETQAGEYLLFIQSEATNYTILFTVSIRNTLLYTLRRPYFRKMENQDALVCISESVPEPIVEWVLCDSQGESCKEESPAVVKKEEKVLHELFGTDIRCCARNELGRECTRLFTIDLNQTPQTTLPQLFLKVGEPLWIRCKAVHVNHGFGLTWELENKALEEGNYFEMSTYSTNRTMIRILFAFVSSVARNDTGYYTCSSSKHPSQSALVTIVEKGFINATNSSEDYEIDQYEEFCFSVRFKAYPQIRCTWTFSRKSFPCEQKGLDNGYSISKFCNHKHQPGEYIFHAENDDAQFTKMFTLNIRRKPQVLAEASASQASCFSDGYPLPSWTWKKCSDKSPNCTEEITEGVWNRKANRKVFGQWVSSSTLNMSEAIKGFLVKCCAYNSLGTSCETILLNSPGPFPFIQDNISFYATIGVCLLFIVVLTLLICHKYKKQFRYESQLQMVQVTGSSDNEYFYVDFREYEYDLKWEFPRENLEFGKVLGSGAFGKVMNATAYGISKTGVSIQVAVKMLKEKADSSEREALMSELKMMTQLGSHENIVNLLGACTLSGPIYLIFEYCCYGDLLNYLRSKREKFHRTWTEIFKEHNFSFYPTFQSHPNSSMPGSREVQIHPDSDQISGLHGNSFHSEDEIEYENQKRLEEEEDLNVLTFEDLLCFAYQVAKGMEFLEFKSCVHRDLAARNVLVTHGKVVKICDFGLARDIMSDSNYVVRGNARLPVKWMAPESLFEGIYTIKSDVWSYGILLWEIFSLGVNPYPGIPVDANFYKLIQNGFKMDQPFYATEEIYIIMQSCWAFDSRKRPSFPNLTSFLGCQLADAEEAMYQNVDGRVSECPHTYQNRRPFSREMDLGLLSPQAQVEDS", "experiment": "Inhibition of human partial length FLT3 ITD mutant expressed in bacterial expression system at 10 uM by Kinomescan method relative to control"}, "[17]": {"target": "Calcium/calmodulin-dependent protein kinase type 1G (Homo sapiens) (UniProt Q96NX5)", "sequence (Q96NX5 whole entry, the tested form may be a part)": "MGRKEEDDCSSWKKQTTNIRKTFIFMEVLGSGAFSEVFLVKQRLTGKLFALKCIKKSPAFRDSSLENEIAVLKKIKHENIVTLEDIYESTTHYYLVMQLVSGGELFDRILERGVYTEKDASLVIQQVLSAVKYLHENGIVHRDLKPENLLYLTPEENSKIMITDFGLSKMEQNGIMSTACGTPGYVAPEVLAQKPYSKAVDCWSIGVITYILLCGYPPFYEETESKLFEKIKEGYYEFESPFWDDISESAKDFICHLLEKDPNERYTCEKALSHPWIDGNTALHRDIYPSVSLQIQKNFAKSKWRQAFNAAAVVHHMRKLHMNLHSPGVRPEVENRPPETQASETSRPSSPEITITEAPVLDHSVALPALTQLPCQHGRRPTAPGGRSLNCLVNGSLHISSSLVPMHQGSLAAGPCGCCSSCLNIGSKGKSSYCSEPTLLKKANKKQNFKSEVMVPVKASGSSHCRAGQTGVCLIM", "experiment": "Inhibition of wild-type human partial length CAMK1G (M1 to A342 residues) expressed in bacterial expression system at 10 uM by Kinomescan method relative to control"}, "[18]": {"target": "Tyrosine-protein kinase JAK3 (Homo sapiens) (UniProt P52333)", "sequence (P52333 whole entry, the tested form may be a part)": "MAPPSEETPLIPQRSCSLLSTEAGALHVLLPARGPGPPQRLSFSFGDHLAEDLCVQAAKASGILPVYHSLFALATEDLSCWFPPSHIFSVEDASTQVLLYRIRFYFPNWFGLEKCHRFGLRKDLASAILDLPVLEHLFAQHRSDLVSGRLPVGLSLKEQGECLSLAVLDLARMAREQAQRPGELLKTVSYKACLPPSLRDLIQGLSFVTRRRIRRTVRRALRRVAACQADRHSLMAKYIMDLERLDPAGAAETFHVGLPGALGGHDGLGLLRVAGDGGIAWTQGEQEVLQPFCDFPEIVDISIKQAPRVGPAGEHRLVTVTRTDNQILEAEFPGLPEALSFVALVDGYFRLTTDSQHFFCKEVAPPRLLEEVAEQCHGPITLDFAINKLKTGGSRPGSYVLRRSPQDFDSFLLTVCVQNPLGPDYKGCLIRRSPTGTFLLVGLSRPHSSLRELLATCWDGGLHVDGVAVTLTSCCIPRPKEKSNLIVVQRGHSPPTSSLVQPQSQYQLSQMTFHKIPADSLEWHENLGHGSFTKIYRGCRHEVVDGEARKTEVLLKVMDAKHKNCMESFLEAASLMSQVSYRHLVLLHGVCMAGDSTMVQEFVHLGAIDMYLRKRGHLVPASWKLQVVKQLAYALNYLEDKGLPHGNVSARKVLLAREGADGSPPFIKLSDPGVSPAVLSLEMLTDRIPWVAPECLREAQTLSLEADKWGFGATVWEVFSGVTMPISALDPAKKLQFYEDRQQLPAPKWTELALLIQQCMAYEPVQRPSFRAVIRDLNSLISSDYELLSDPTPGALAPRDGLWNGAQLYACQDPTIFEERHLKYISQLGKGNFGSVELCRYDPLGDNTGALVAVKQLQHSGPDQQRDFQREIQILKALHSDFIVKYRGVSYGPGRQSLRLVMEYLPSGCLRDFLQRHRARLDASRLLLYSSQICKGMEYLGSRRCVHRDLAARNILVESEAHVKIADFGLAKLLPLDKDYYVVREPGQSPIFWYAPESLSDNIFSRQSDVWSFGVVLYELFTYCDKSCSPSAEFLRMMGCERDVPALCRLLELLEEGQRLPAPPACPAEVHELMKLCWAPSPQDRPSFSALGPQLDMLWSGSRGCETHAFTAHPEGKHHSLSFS", "experiment": "Inhibition of wild-type human partial length JAK3 JH1 catalytic domain (I781 to S1124 residues) expressed in mammalian expression system at 10 uM by Kinomescan method relative to control"}, "[19]": {"target": "Ribosomal protein S6 kinase alpha-4 (Homo sapiens) (UniProt O75676)", "sequence (O75676 whole entry, looked up, the tested form may be a part)": "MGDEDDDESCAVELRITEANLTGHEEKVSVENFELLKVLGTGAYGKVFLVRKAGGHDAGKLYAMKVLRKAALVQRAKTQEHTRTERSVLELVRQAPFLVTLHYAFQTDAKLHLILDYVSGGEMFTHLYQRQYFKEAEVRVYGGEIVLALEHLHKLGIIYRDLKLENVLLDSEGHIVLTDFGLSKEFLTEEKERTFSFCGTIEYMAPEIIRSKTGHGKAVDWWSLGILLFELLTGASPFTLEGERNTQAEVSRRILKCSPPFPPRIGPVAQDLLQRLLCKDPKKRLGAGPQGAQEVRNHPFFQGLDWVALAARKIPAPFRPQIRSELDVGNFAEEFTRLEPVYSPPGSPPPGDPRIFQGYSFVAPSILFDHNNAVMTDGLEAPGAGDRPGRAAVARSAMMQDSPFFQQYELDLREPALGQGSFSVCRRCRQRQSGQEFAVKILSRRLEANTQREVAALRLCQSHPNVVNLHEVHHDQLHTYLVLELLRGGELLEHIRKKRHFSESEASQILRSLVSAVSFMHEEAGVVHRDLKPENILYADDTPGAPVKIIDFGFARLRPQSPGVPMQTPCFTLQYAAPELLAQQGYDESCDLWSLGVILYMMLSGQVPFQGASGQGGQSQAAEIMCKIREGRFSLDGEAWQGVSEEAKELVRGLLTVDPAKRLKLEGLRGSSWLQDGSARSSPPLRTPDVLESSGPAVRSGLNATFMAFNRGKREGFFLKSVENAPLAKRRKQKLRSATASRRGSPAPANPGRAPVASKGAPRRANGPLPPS", "experiment": "Inhibition of wild-type human partial length N-terminal RPS6KA4 kinase domain 1 expressed in bacterial expression system at 10 uM by Kinomescan method relative to control"}, "[20]": {"target": "cAMP-dependent protein kinase catalytic subunit PRKX (Homo sapiens) (UniProt P51817)", "experiment": "Inhibition of wild-type human partial length PRKX (M1 to F358 residues) expressed in bacterial expression system at 10 uM by Kinomescan method relative to control"}, "[21]": {"target": "Testis-specific serine/threonine-protein kinase 1 (Homo sapiens) (UniProt Q9BXA7)", "experiment": "Inhibition of wild-type human full length TSSK1B (M1 to Q367 residues) expressed in bacterial expression system at 10 uM by Kinomescan method relative to control"}, "[22]": {"target": "Ephrin type-A receptor 8 (Homo sapiens) (UniProt P29322)", "sequence (P29322 whole entry, the tested form may be a part)": "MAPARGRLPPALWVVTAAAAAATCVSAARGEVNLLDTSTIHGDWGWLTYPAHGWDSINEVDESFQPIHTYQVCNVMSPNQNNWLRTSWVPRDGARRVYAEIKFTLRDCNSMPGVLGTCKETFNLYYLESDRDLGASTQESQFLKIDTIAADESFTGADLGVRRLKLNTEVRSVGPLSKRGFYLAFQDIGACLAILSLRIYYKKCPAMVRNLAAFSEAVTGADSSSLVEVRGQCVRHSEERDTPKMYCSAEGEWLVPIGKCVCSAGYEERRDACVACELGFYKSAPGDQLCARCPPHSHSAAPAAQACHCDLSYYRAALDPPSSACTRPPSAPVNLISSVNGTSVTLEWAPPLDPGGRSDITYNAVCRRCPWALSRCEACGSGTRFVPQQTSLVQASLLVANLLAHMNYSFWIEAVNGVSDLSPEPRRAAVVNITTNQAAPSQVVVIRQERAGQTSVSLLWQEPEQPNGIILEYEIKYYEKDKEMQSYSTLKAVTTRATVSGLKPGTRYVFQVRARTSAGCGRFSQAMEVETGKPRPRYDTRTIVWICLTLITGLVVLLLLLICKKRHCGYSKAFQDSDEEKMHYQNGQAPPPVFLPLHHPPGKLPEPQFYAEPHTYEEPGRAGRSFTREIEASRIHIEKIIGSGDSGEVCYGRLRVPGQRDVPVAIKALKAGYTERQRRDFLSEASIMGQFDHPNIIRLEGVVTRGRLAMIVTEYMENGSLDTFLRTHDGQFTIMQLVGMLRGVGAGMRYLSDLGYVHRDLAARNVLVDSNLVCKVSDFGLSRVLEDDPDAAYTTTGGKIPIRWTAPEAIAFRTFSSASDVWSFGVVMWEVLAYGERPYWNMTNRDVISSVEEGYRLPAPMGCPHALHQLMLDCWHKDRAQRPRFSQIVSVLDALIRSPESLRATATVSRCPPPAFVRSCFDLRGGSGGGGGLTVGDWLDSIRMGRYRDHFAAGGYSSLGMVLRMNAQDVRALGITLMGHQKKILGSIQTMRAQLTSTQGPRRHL", "experiment": "Inhibition of wild-type human partial length EPHA8 (Q608 to C920 residues) expressed in bacterial expression system at 10 uM by Kinomescan method relative to control"}, "[23]": {"target": "Serine/threonine-protein kinase 33 (Homo sapiens) (UniProt Q9BYT3)", "sequence (Q9BYT3 whole entry, looked up, the tested form may be a part)": "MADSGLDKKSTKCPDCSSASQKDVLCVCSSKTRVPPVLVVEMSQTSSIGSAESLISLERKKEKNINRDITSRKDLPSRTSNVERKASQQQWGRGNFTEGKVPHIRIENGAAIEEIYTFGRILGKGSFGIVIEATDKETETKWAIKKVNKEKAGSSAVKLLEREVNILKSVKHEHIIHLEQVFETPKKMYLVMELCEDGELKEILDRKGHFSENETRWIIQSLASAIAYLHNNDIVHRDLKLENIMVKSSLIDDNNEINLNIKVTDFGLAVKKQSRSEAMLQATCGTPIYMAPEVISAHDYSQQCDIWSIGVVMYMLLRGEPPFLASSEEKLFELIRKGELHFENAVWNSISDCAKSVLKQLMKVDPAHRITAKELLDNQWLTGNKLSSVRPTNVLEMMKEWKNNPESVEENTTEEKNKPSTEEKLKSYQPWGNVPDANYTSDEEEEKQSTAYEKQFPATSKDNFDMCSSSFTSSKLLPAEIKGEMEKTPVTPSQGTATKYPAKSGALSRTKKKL", "experiment": "Inhibition of wild-type human full length STK33 (M1 to L514 residues) expressed in bacterial expression system at 10 uM by Kinomescan method relative to control"}, "[24]": {"target": "Myosin-IIIa (Homo sapiens) (UniProt Q8NEV4)", "experiment": "Inhibition of wild-type human partial length MYO3A (M1 to K338 residues) expressed in bacterial expression system at 10 uM by Kinomescan method relative to control"}, "[25]": {"target": "Serine/threonine-protein kinase RIO2 (Homo sapiens) (UniProt Q9BVS4)", "experiment": "Inhibition of wild-type human partial length RIOK2 (M1 to D313 residues) expressed in mammalian expression system at 10 uM by Kinomescan method relative to control"}, "[26]": {"test_system": "Receptor-type tyrosine-protein kinase FLT3 (Homo sapiens), P36888 [UNDEFINED MUTATION]", "experiment": "Inhibition of human partial length FLT3 ITD/F691L double mutant expressed in bacterial expression system at 10 uM by Kinomescan method relative to control"}, "[27]": {"target": "Tyrosine-protein kinase Fyn (Homo sapiens) (UniProt P06241)", "experiment": "Inhibition of wild-type human partial length FYN (T243 to L534 residues) expressed in bacterial expression system at 10 uM by Kinomescan method relative to control"}},
  "data": [
    {"compound": "O=C(Nc1cccc([C@@H]2CN(c3ncnc4[nH]ccc34)CCN2CCO)c1)Nc1c(F)cccc1N1CCCC1", "values": [
      {"measurement": "inhibition", "setting": "[1]", "result": 81, "unit": "%"},
      {"measurement": "inhibition", "setting": "[2]", "result": 100, "unit": "%"},
      {"measurement": "inhibition", "setting": "[3]", "result": 46, "unit": "%"},
      {"measurement": "inhibition", "setting": "[4]", "result": 65, "unit": "%"},
      {"measurement": "inhibition", "setting": "[5]", "result": 100, "unit": "%"},
      {"measurement": "inhibition", "setting": "[6]", "result": 99, "unit": "%"},
      {"measurement": "inhibition", "setting": "[7]", "result": 95, "unit": "%"},
      {"measurement": "inhibition", "setting": "[8]", "result": 100, "unit": "%"},
      {"measurement": "inhibition", "setting": "[9]", "result": 80, "unit": "%"},
      {"measurement": "inhibition", "setting": "[10]", "result": 100, "unit": "%"},
      {"measurement": "inhibition", "setting": "[11]", "result": 28, "unit": "%"},
      {"measurement": "inhibition", "setting": "[12]", "result": 100, "unit": "%"},
      {"measurement": "inhibition", "setting": "[13]", "result": 95, "unit": "%"},
      {"measurement": "inhibition", "setting": "[14]", "result": 90, "unit": "%"},
      {"measurement": "inhibition", "setting": "[15]", "result": 95, "unit": "%"}
    ]},
    {"compound": "O=C(Nc1cccc([C@H]2CCCN(c3ncnc4[nH]ccc34)C2)c1)Nc1ccccc1N1CCCC1", "values": [
      {"measurement": "inhibition", "setting": "[16]", "result": 8.5, "unit": "%"},
      {"measurement": "inhibition", "setting": "[17]", "result": 85, "unit": "%"},
      {"measurement": "inhibition", "setting": "[18]", "result": 0.35, "unit": "%"},
      {"measurement": "inhibition", "setting": "[19]", "result": 77, "unit": "%"},
      {"measurement": "inhibition", "setting": "[20]", "result": 96, "unit": "%"},
      {"measurement": "inhibition", "setting": "[21]", "result": 100, "unit": "%"},
      {"measurement": "inhibition", "setting": "[22]", "result": 40, "unit": "%"},
      {"measurement": "inhibition", "setting": "[23]", "result": 100, "unit": "%"},
      {"measurement": "inhibition", "setting": "[24]", "result": 52, "unit": "%"},
      {"measurement": "inhibition", "setting": "[25]", "result": 72, "unit": "%"},
      {"measurement": "inhibition", "setting": "[26]", "result": 3.6, "unit": "%"},
      {"measurement": "inhibition", "setting": "[27]", "result": 67, "unit": "%"}
    ]}
  ]
}
